Assay results from ChEMBL document CHEMBL1201862, “PubChem BioAssay data set” (2004).
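Interpolation was linear, between the two tested concentrations surrounding the appropriate level; five concentrations were tested over 48 hours in 96-well plates. GI50 is the concentration that inhibits growth by half.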 Active and inactive are the calls of the source. Cut-off read from the data, not from the text of the source: active = GI50 up to about 1.1 µM and inactive = higher.

Assays:
Test in all cases: inhibition of tumour cell growth, NCI panel, 48 h
SN12C = tested on: SN12C
KM12 = tested on: KM12
HT-29 = tested on: HT-29
BT-549 = tested on: BT-549
RPMI-8226 = tested on: RPMI-8226
EKVX = tested on: EKVX
COLO 205 = tested on: COLO 205
HL-60 = tested on: HL-60
U-251 = tested on: U-251
RXF 393 = tested on: RXF 393
IGROV-1 = tested on: IGROV-1
NCI/ADR-RES = tested on: NCI/ADR-RES
LOX IMVI = tested on: LOX IMVI
CAKI-1 = tested on: CAKI-1
SF-268 = tested on: SF-268
TK-10 = tested on: TK-10
HCT-15 = tested on: HCT-15
SK-MEL-2 = tested on: SK-MEL-2
SK-OV-3 = tested on: SK-OV-3
SR = tested on: SR
NCI-H226 = tested on: NCI-H226
HCT-116 = tested on: HCT-116
T47D = tested on: T47D
SK-MEL-28 = tested on: SK-MEL-28
HOP-62 = tested on: HOP-62
PC-3 = tested on: PC-3
OVCAR-5 = tested on: OVCAR-5
SW-620 = tested on: SW-620
CCRF-CEM = tested on: CCRF-CEM
K562 = tested on: K562
HOP-92 = tested on: HOP-92
MDA-MB-231 = tested on: MDA-MB-231
M14 = tested on: M14
SF-295 = tested on: SF-295
UO-31 = tested on: UO-31
SNB-19 = tested on: SNB-19
NCI-H23 = tested on: NCI-H23
MCF7 = tested on: MCF7
OVCAR-8 = tested on: OVCAR-8
NCI-H460 = tested on: NCI-H460
SNB-75 = tested on: SNB-75
Malme-3M = tested on: Malme-3M
786-0 = tested on: 786-0
UACC-62 = tested on: UACC-62
SF-539 = tested on: SF-539
ACHN = tested on: ACHN
MDA-N = tested on: MDA-N
MDA-MB-435 = tested on: MDA-MB-435
DU-145 = tested on: DU-145
UACC-257 = tested on: UACC-257
A498 = tested on: A498
OVCAR-4 = tested on: OVCAR-4
Hs-578T = tested on: Hs-578T
MOLT-4 = tested on: MOLT-4
OVCAR-3 = tested on: OVCAR-3
HCC 2998 = tested on: HCC 2998
SK-MEL-5 = tested on: SK-MEL-5
NCI-H522 = tested on: NCI-H522
A549 = tested on: A549

## CC(=O)c1cccc(NC(=O)C(=O)C(c2cnc3ccc([N+](=O)[O-])cc3n2)[N+](=O)[O-])c1 (configuration not stated)
SN12C
  GI50: > 100 µM (inactive)
KM12
  GI50: 54.1 µM (inactive)
HT-29
  GI50: > 100 µM (inactive)
BT-549
  GI50: 53 µM (inactive)
RPMI-8226
  GI50: > 100 µM (inactive)
EKVX
  GI50: > 100 µM (inactive)
COLO 205
  GI50: 41 µM (inactive)
HL-60
  GI50: 37.9 µM (inactive)
U-251
  GI50: > 100 µM (inactive)
RXF 393
  GI50: 96.6 µM (inactive)
IGROV-1
  GI50: > 100 µM (inactive)
NCI/ADR-RES
  GI50: 95.5 µM (inactive)
LOX IMVI
  GI50: > 100 µM (inactive)
CAKI-1
  GI50: > 100 µM (inactive)
SF-268
  GI50: > 100 µM (inactive)
TK-10
  GI50: > 100 µM (inactive)
HCT-15
  GI50: > 100 µM
SK-MEL-2
  GI50: > 100 µM (inactive)
SK-OV-3
  GI50: > 100 µM (inactive)
SR
  GI50: 52.1 µM (inactive)
NCI-H226
  GI50: > 100 µM (inactive)
HCT-116
  GI50: 58.3 µM (inactive)
T47D
  GI50: > 100 µM (inactive)
SK-MEL-28
  GI50: > 100 µM (inactive)
HOP-62
  GI50: > 100 µM (inactive)
PC-3
  GI50: 42.9 µM (inactive)
OVCAR-5
  GI50: > 100 µM (inactive)
SW-620
  GI50: 52.2 µM (inactive)
CCRF-CEM
  GI50: 36.4 µM (inactive)
K562
  GI50: > 100 µM (inactive)
HOP-92
  GI50: > 100 µM (inactive)
MDA-MB-231
  GI50: > 100 µM (inactive)
M14
  GI50: 69 µM (inactive)
SF-295
  GI50: 66.7 µM (inactive)
UO-31
  GI50: 38.5 µM (inactive)
SNB-19
  GI50: > 100 µM (inactive)
NCI-H23
  GI50: > 100 µM (inactive)
MCF7
  GI50: > 100 µM (inactive)
OVCAR-8
  GI50: > 100 µM (inactive)
NCI-H460
  GI50: > 100 µM (inactive)
SNB-75
  GI50: > 100 µM (inactive)
Malme-3M
  GI50: > 100 µM (inactive)
786-0
  GI50: > 100 µM (inactive)
UACC-62
  GI50: > 100 µM (inactive)
SF-539
  GI50: > 100 µM (inactive)
ACHN
  GI50: > 100 µM (inactive)
MDA-N
  GI50: > 100 µM (inactive)
MDA-MB-435
  GI50: > 100 µM (inactive)
DU-145
  GI50: > 100 µM (inactive)
UACC-257
  GI50: > 100 µM (inactive)
A498
  GI50: > 100 µM (inactive)
OVCAR-4
  GI50: > 100 µM (inactive)
Hs-578T
  GI50: > 100 µM (inactive)
MOLT-4
  GI50: 36.7 µM (inactive)
OVCAR-3
  GI50: > 100 µM (inactive)
HCC 2998
  GI50: 69.8 µM (inactive)

## CSc1c(C(=O)Nc2ccc(Cl)cc2)c(N)nn1-c1ccccc1
SN12C
  GI50: > 100 µM (inactive)
KM12
  GI50: > 100 µM (inactive)
HT-29
  GI50: > 100 µM (inactive)
BT-549
  GI50: > 100 µM (inactive)
RPMI-8226
  GI50: > 100 µM (inactive)
EKVX
  GI50: > 100 µM (inactive)
COLO 205
  GI50: > 100 µM (inactive)
HL-60
  GI50: > 100 µM (inactive)
U-251
  GI50: 61.5 µM (inactive)
RXF 393
  GI50: 22.7 µM (inactive)
IGROV-1
  GI50: > 100 µM (inactive)
NCI/ADR-RES
  GI50: > 58.7 µM (inactive)
LOX IMVI
  GI50: > 100 µM (inactive)
CAKI-1
  GI50: > 100 µM (inactive)
SF-268
  GI50: > 100 µM (inactive)
TK-10
  GI50: > 38.9 µM (inactive)
HCT-15
  GI50: > 100 µM
SK-MEL-5
  GI50: > 100 µM (inactive)
SK-MEL-2
  GI50: > 100 µM (inactive)
SK-OV-3
  GI50: 19.6 µM (inactive)
SR
  GI50: > 100 µM (inactive)
NCI-H226
  GI50: > 100 µM (inactive)
HCT-116
  GI50: > 100 µM (inactive)
NCI-H522
  GI50: > 100 µM (inactive)
T47D
  GI50: > 100 µM (inactive)
SK-MEL-28
  GI50: > 100 µM (inactive)
A549
  GI50: > 24.5 µM (inactive)
HOP-62
  GI50: 80 µM (inactive)
PC-3
  GI50: > 100 µM (inactive)
OVCAR-5
  GI50: > 100 µM (inactive)
SW-620
  GI50: > 100 µM (inactive)
CCRF-CEM
  GI50: > 100 µM (inactive)
K562
  GI50: > 100 µM (inactive)
HOP-92
  GI50: > 100 µM (inactive)
MDA-MB-231
  GI50: 40.8 µM (inactive)
M14
  GI50: > 100 µM (inactive)
SF-295
  GI50: > 100 µM (inactive)
UO-31
  GI50: > 44.8 µM (inactive)
SNB-19
  GI50: > 100 µM (inactive)
NCI-H23
  GI50: > 100 µM (inactive)
MCF7
  GI50: > 100 µM (inactive)
OVCAR-8
  GI50: 21.1 µM (inactive)
NCI-H460
  GI50: > 59.2 µM (inactive)
SNB-75
  GI50: 21.6 µM (inactive)
Malme-3M
  GI50: > 100 µM (inactive)
786-0
  GI50: 9.75 µM (inactive)
UACC-62
  GI50: > 100 µM (inactive)
SF-539
  GI50: > 100 µM (inactive)
ACHN
  GI50: 78.7 µM (inactive)
MDA-N
  GI50: > 100 µM (inactive)
MDA-MB-435
  GI50: > 100 µM (inactive)
DU-145
  GI50: > 100 µM (inactive)
UACC-257
  GI50: > 100 µM (inactive)
A498
  GI50: > 35.3 µM (inactive)
Hs-578T
  GI50: > 28.2 µM (inactive)
MOLT-4
  GI50: > 100 µM (inactive)
OVCAR-3
  GI50: > 100 µM (inactive)
HCC 2998
  GI50: > 100 µM (inactive)

## [N-]=[N+]=Nc1c([N+](=O)[O-])c(=O)n2c3c(cccc13)CCC2
SN12C
  GI50: 9.77 µM (inactive)
KM12
  GI50: 17 µM (inactive)
HT-29
  GI50: 15 µM (inactive)
BT-549
  GI50: 18.4 µM (inactive)
RPMI-8226
  GI50: 3.15 µM (inactive)
EKVX
  GI50: 19.4 µM (inactive)
COLO 205
  GI50: 6.28 µM (inactive)
HL-60
  GI50: 2.2 µM (inactive)
U-251
  GI50: 17.5 µM (inactive)
IGROV-1
  GI50: 20.8 µM (inactive)
NCI/ADR-RES
  GI50: 20.6 µM (inactive)
LOX IMVI
  GI50: 14.4 µM (inactive)
CAKI-1
  GI50: 13.2 µM (inactive)
SF-268
  GI50: 13.6 µM (inactive)
TK-10
  GI50: 20 µM (inactive)
HCT-15
  GI50: 6.44 µM
SK-MEL-5
  GI50: 16.7 µM (inactive)
SK-MEL-2
  GI50: 16.6 µM (inactive)
SK-OV-3
  GI50: > 100 µM (inactive)
SR
  GI50: 2.27 µM (inactive)
NCI-H226
  GI50: 24.2 µM (inactive)
HCT-116
  GI50: 15.6 µM (inactive)
NCI-H522
  GI50: 2.08 µM (inactive)
T47D
  GI50: 5.42 µM (inactive)
SK-MEL-28
  GI50: 5.62 µM (inactive)
A549
  GI50: 35.9 µM (inactive)
HOP-62
  GI50: > 100 µM (inactive)
PC-3
  GI50: 16.9 µM (inactive)
OVCAR-5
  GI50: 16.4 µM (inactive)
SW-620
  GI50: 3.9 µM (inactive)
CCRF-CEM
  GI50: 1.97 µM (inactive)
K562
  GI50: 1.75 µM (inactive)
HOP-92
  GI50: 14 µM (inactive)
MDA-MB-231
  GI50: 10.6 µM (inactive)
M14
  GI50: 10.8 µM (inactive)
SF-295
  GI50: > 65.5 µM (inactive)
UO-31
  GI50: 15.2 µM (inactive)
SNB-19
  GI50: > 67.8 µM (inactive)
NCI-H23
  GI50: 16.1 µM (inactive)
MCF7
  GI50: 11 µM (inactive)
OVCAR-8
  GI50: 17.3 µM (inactive)
NCI-H460
  GI50: 17.8 µM (inactive)
SNB-75
  GI50: 19.4 µM (inactive)
Malme-3M
  GI50: 1.62 µM (inactive)
786-0
  GI50: 17.1 µM (inactive)
UACC-62
  GI50: 14 µM (inactive)
SF-539
  GI50: 23.2 µM (inactive)
ACHN
  GI50: 17.8 µM (inactive)
MDA-N
  GI50: 14.4 µM (inactive)
MDA-MB-435
  GI50: 17.3 µM (inactive)
DU-145
  GI50: 16.9 µM (inactive)
UACC-257
  GI50: 8.15 µM (inactive)
A498
  GI50: 27 µM (inactive)
OVCAR-4
  GI50: 13.7 µM (inactive)
Hs-578T
  GI50: 26.2 µM (inactive)
MOLT-4
  GI50: 2.48 µM (inactive)
OVCAR-3
  GI50: 17 µM (inactive)
HCC 2998
  GI50: 19.1 µM (inactive)
